Data: publication PMC3795654, “Combinatorial Optimization of Cystine-Knot Peptides towards High-Affinity Inhibitors of Human Matriptase-1” (PLoS ONE, 2013)
Where two headings read alike, the source gives them in different places. Where a SMILES comes first, the peptide text is derived from it. Bridges are numbered along the chain shown (N, C = ends).

Assays:
[1] = molecular target: T1, Bovine pancreatic trypsin (Bos taurus, UniProt P00760); experiment: Trypsin inhibition assay (substrate-independent Ki); type: biochemical; settings: substrate-independent Ki from Ki app (Morrison equation) and Km; 250 µM substrate; preincubation 30 min RT; read over 30 min; triplicate
T1 construct: purchased Sigma-Aldrich
T1 sequence (P00760 24-246): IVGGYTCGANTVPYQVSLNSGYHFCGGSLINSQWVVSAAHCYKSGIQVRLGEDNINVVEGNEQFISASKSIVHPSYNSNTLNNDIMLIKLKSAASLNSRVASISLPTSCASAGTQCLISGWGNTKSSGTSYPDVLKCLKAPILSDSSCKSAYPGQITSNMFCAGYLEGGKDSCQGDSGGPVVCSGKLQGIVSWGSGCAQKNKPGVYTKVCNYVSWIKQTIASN
Procedure: (§5) Apparent inhibition constants (Ki ^app) were calculated by fitting the Morrison equation (1) for tight-binding inhibitors to the relative reaction velocity using non-linear regression (Marquardt-Levenberg algorithm, Sigma Plot 11) [63].

Human matriptase-1 [2] = molecular target: T2, Human matriptase-1 (Homo sapiens, UniProt Q9Y5Y6); experiment: Matriptase-1 inhibition assay (Ki / Ki app); type: biochemical; settings: substrate-independent Ki from Ki app (Morrison equation) and Km; 250 µM substrate; preincubation 30 min RT; read over 30 min; triplicate; read-out: Ki (Matriptase-1)
T2 construct: made in house
T2 sequence (Q9Y5Y6 615-855 limits assumed): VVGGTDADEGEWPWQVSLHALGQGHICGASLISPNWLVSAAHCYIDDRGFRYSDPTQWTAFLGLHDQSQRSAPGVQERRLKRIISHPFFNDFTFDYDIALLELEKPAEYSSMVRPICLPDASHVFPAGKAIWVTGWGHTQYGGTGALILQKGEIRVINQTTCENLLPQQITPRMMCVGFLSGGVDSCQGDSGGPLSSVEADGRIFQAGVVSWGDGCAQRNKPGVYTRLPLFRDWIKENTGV
Procedure: (§6) Human matriptase-1 was produced recombinantly, autocatalytically activated and purified as previously reported [35], [49], [51], [60].
as §5

Human matriptase-1 [3] = experiment: Matriptase-1 inhibition assay (Ki / Ki app); type: biochemical; settings: ratio of Ki values of Table 1
Procedure: as §6, §5

thrombin = experiment: Selectivity assay, thrombin inhibition; type: biochemical; settings: duplicates; 5 nM protease; no inhibition observed at 10 µM inhibitor concentration
Procedure: as §5

Hepsin = Hepsin (Homo sapiens, UniProt P05981); experiment: biochemical
Chain of Hepsin (P05981 whole entry): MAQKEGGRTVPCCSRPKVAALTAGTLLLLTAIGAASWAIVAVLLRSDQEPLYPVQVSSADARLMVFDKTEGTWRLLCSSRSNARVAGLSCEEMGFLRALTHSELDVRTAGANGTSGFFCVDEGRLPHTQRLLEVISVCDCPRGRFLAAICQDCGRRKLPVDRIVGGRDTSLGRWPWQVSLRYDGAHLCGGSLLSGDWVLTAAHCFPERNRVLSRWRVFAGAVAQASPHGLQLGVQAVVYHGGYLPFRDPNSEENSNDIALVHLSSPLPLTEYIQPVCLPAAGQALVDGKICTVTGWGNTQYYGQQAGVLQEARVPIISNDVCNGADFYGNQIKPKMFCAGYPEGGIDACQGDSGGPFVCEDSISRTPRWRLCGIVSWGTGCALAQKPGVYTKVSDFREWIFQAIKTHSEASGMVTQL
Procedure: (§1) Human matriptase-1 was produced recombinantly, autocatalytically activated and purified as previously reported, [49], [51], [60]. Bovine pancreatic trypsin, thrombin and uPA were purchased from Sigma-Aldrich and Hepsin from R&D Systems.
(§2) Measurements were carried out in triplicate using a Tecan Genios ELISA reader. The normalized residual proteolytic activity (v/v0) of proteases was determined using substrates Boc-QAR-pNA (250 µM, (pNA stands for para-nitro aniline), Boc-QAR-AMC (250 µM, AMC stands for amino-methyl coumarin) or Spectrozym tPA (250 µM, American Diagnostica, CH3SO2-D-CHT-Gly-Arg-pNA AcOH). Product formation was monitored after preincubation (30 min, RT) with inhibitor at different concentrations over 30 min by measuring the absorbance at 405 nm for pNA substrates or the fluorescence emission for AMC substrates (ex. 360 nm, em. 465 nm), respectively. Selectivity data were carried out in duplicates with final protease concentrations of uPA and thrombin of 5 nM. In case of hepsin 50 mM Tris/HCl pH 9.0 was used as assay buffer.
(§3) Apparent inhibition constants (Ki ^app) were calculated by fitting the Morrison equation (1) for tight-binding inhibitors to the relative reaction velocity using non-linear regression (Marquardt-Levenberg algorithm, Sigma Plot 11). [drawing 1] (1) [drawing 2] (2)
(§4) Substrate-independent inhibition constants Ki were calculated from Ki ^app and Km of the enzyme according to (2). The Michaelis-Menten constant Km for the substrates and proteases were determined previously, [64].

uPA = uPA (Homo sapiens, UniProt P00749); experiment: biochemical
Procedure: as §1, §2, §3, §4

[4] = test system: uPA activation by matriptase-1 on the surface of PC-3 cells; experiment: Cell inhibition assay: uPA activation by matriptase-1 on the surface of PC-3 cells; type: cell-based, human
Procedure: Human prostate cancer cells (PC-3, Merck KGaA) were cultured in DMEM medium with 10% FCS at 37°C and 5% CO2, washed with cation-free PBS and harvested by scraping. 1×10^5 cells were incubated in presence of 250 µM Bz-β-Ala-Gly-Arg-pNA·AcOH (American Diagnostica), which is a specific […] of urokinase, and the inhibitor of interest in defined dilutions overnight. Product formation was monitored at 405 nm before and after incubation in a microplate reader. IC50 was calculated by non-linear regression using SigmaPlot 11.
Urokinase-type plasminogen activator (uPA) causes the degradation of the extracellular matrix and plays a critical role in tumor invasion and metastasis, [73]. It was shown that activation of receptor-bound pro-uPA is affected by matriptase-1, which results in a decreased ability of uPAexpressing tumor cells to invade an extracellular matrix layer upon inhibition of membrane-bound matriptase-1 [72].
For the indirect determination of the IC50 of SOTI Var. 1 and MCoTI Var. 4 on the surface of these cancer cells, the turnover of an uPA substrate was monitored. Pro-uPA is activated through non-inhibited matriptase-1 and substrate turnover was measured and compared to the previously reported small molecule inhibitor S1 of matriptase-1 (Figure 4). In this experimental setting, the MCoTI-based inhibitor Var. […] 4 in this assay.
Figure 4 Inhibition assay of uPA activation by matriptase-1 on the surface of PC-3 cells. Depicted is the logarithmic inhibitor concentration against the absorption at 405 TEXT PRINTED IN THE PICTURE: MCoTI Var.

Structure (SMILES): CC[C@H](C)[C@@H]1NC(=O)[C@@H]2CSSC[C@H](NC(=O)[C@@H](NC(=O)CNC(=O)[C@@H](N)Cc3c[nH]c4ccccc34)C(C)C)C(=O)N3CCC[C@H]3C(=O)N[C@@H](CCCCN)C(=O)N[C@@H](C(C)C)C(=O)N[C@@H](CC(C)C)C(=O)N[C@@H](CCCNC(=N)N)C(=O)N[C@@H](CC(N)=O)C(=O)N[C@H]3CSSC[C@H](NC1=O)C(=O)N[C@@H](CC(C)C)C(=O)NCC(=O)N[C@@H](CC(N)=O)C(=O)NCC(=O)N[C@@H](Cc1ccc(O)cc1)C(=O)N[C@H](C(=O)NCC(N)=O)CSSC[C@H](NC(=O)[C@H](CC(=O)O)NC(=O)[C@H](CO)NC(=O)[C@H](CC(=O)O)NC(=O)[C@H](CCCNC(=N)N)NC(=O)[C@H](CCCNC(=N)N)NC3=O)C(=O)N1CCC[C@H]1C(=O)NCC(=O)N[C@@H](C)C(=O)N2 [MCoTI Var. 4] (H-WGVCPKVLRNCRRDSDCPGACICLGNGYCG-NH2; disulfide 4-21, 11-23, 17-29)
- Ki [1]: 35.8 ± 4.7 nM
- Ki (Human matriptase-1 [2]): 0.83 ± 0.14 nM
- inhibitory activity for matriptase-1 relative to trypsin (Human matriptase-1 [3]): approximately fortyfold higher
- Ki (thrombin): > 10000 nM
- Ki (Hepsin): > 10000 nM
- Ki (Hepsin; read-out: Ki (Hepsin), duplicates, 50 mM Tris/HCl pH 9.0, no inhibition observed at 10 µM inhibitor concentration): > 10000 nM
- Ki (uPA): > 10000 nM
- IC50 ([4]; 1×10^5 PC-3 cells, 250 µM Bz-β-Ala-Gly-Arg-pNA, overnight, absorbance 405 nm, read-out: IC50 (uPA substrate turnover on PC-3 cells)): 213 nM
- potency relative to recently described peptidomimetic small-molecule inhibitors ([4]; PC-3 cells, IC50 comparison (Figure 4)): 10 fold
